Laboratory results from patent publication US10221163B2 (priority 2015, dated 2019).
Where two headings read alike, the source gives them in different places.

Assays:
[1] = test system: Pseudomonas aeruginosa MB9798 vs MB9799; conditions: ratio MITC95 PA_9798/MITC95 PA_9799
Summary of the method: (§1)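 Steps: add fixed imipenem and/or ceftazidime (usually CLSI breakpoint) and fixed AmpC-directed class A/C inhibitor to microbroth MIC wells; titrate MBL inhibitor; record concentration regaining susceptibility for each PAO1-derived strain; divide efflux+ by efflux− value.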

[2] = test system: Pseudomonas aeruginosa efflux− (MB9799), IMP-1; format: cell-based; conditions: concentration restoring susceptibility to imipenem at 2 μg/mL in the presence of a class A, C, D serine β-lactamase inhibitor closely related to relebactam
Summary of the method: as §1

NDM-1 = NDM-1 (Klebsiella pneumoniae, UniProt C7C422); assay: biochemical; format: biochemical; conditions: fluorescence assay, CCF2-FA substrate, 1 pM enzyme, 2 hours at 25° C.; read-out: NDM-1 IC50
Chain of NDM-1 (C7C422 whole entry, looked up, species assumed): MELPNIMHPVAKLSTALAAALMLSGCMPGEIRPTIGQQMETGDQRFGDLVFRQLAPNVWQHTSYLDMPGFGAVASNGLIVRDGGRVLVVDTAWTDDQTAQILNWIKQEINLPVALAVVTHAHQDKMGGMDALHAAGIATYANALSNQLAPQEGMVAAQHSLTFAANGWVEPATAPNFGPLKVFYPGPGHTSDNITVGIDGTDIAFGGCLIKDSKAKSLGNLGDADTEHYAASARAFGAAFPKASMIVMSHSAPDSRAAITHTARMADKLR
Summary of the method: (§2)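 Class B activity is measured in the presence of compound by fluorescence with CCF2-FA after a 2-hour incubation at 25° C. IC50 is taken from a 4-parameter fit of semi-logarithmic dose-response data.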

IMP-1 = IMP-1 (Serratia marcescens, UniProt P52699); assay: biochemical; format: biochemical; conditions: fluorescence assay, CCF2-FA substrate, 2 pM enzyme, 2 hours at 25° C.; read-out: IMP-1 IC50
Chain of IMP-1 (P52699 whole entry, looked up, species assumed): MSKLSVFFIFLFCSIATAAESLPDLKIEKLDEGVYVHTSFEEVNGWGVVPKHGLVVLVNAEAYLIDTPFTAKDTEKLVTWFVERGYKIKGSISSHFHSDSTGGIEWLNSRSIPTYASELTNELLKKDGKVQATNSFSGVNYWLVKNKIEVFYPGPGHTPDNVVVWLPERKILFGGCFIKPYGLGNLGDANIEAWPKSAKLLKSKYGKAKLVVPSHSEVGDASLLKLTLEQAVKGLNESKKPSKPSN
Summary of the method: as §2

[3] = test system: Escherichia coli expressing NDM-1 (CLB30005, CLB30016); format: cell-based; conditions: NDM-1 strain, with imipenem 1 μg/ml, 95% inhibition of growth
Summary of the method: (§3)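 Clinical isolates (E. coli NDM-1, S. marcescens IMP-1, K. pneumoniae VIM-1) were diluted 1:100 from saline suspension into 1.1×CAMHB and exposed to test compound with imipenem at 1 μg/ml. Plates were incubated at 35° C for 22 hours to 24 hours, and growth was read by absorbance.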

[4] = test system: Serratia marcescens expressing IMP-1 (CL5741); format: cell-based; conditions: IMP-1 strain CL5741, with imipenem 1 μg/ml, 95% inhibition of growth
Summary of the method: as §3

[5] = test system: Klebsiella pneumoniae expressing VIM-1 (IHMA599644); format: cell-based; conditions: VIM-1 strain IHMA599644, with imipenem 1 μg/ml, 95% inhibition of growth
Summary of the method: as §3

VIM-1 = VIM-1 (Pseudomonas aeruginosa (strain ATCC 15692 / DSM 22644 / CIP 104116 / JCM 14847 / LMG 12228 / 1C / PRS 101 / PAO1), UniProt A0A0F7KYQ8); assay: biochemical; conditions: CCF2-FA substrate, 30 pM enzyme, 2 hours at 25° C.
Summary of the method: as §2

[6] = test system: Pseudomonas aeruginosa efflux+ (MB9798), IMP-1; format: cell-based; conditions: concentration restoring susceptibility to imipenem at 2 μg/mL in the presence of a class A, C, D serine β-lactamase inhibitor closely related to relebactam
Summary of the method: as §1

[7] = fluorescence assay, read-out: VIM-1 IC50

NS(=O)(=O)c1c(S(=O)(=O)N[C@@H]2CCNC2)ccc(-c2cccc3ncccc23)c1-c1nn[nH]n1 [Example 287, (R)-N1-(pyrrolidin-3-yl)-4-(quinolin-5-yl)-3-(2H-tetrazol-5-yl)benzene-1,2-disulfonamide]
Efflux ratio [1]: 1.00
P. aeruginosa expressing IMP-1, efflux − (MB9799) MITC95 [2]: 1.563 µM
IC50 (NDM-1): 0.0422 nM
IC50 (IMP-1): 0.617 nM
Escherichia coli MITC95 [3]: 1.563 µM
Serratia marcescens MITC95 [4]: 1.563 µM
Klebsiella pneumoniae MITC95 [5]: 3.125 µM
IC50 (VIM-1; [7]): 0.165 nM
P. aeruginosa expressing IMP-1, efflux + (MB9798) MITC95 [6]: 1.563 µM

Nc1cc(-c2ccc(S(=O)(=O)N[C@@H]3CCNC3)c(S(N)(=O)=O)c2-c2nn[nH]n2)ccn1 [Example 288, (R)-4-(2-aminopyridin-4-yl)-N1-(pyrrolidin-3-yl)-3-(2H-tetrazol-5-yl)benzene-1,2-disulfonamide]
Efflux ratio [1]: 2.00
P. aeruginosa expressing IMP-1, efflux − (MB9799) MITC95 [2]: 0.7813 µM
IC50 (NDM-1): 0.0985 nM
IC50 (IMP-1): 0.462 nM
Escherichia coli MITC95 [3]: 0.7813 µM
Serratia marcescens MITC95 [4]: 1.563 µM
Klebsiella pneumoniae MITC95 [5]: 1.563 µM
IC50 (VIM-1; [7]): 0.0781 nM
P. aeruginosa expressing IMP-1, efflux + (MB9798) MITC95 [6]: 1.563 µM

NCCn1nnc2c(-c3ccc(S(=O)(=O)N[C@@H]4CCNC4)c(S(N)(=O)=O)c3-c3nn[nH]n3)cccc21 [Example 289]
Efflux ratio [1]: 2.00
P. aeruginosa expressing IMP-1, efflux − (MB9799) MITC95 [2]: 0.7813 µM
IC50 (NDM-1): 0.249 nM
IC50 (IMP-1): 1.22 nM
Escherichia coli MITC95 [3]: 0.7813 µM
Serratia marcescens MITC95 [4]: 1.563 µM
Klebsiella pneumoniae MITC95 [5]: 1.563 µM
IC50 (VIM-1; [7]): 0.104 nM
P. aeruginosa expressing IMP-1, efflux + (MB9798) MITC95 [6]: 1.563 µM

NCc1csc(Nc2cccc(-c3ccc(S(=O)(=O)N[C@@H]4CCNC4)c(S(N)(=O)=O)c3-c3nn[nH]n3)c2)n1 [Example 290, (R)-3′-((4-(aminomethyl)thiazol-2-yl)amino)-N4-(pyrrolidin-3-yl)-2-(2H-tetrazol-5-yl)-[1,1′-biphenyl]-3,4-disulfonamide]
Efflux ratio [1]: 2.00
P. aeruginosa expressing IMP-1, efflux − (MB9799) MITC95 [2]: 0.3906 µM
IC50 (NDM-1): 0.0873 nM
IC50 (IMP-1): 0.448 nM
Escherichia coli MITC95 [3]: 0.1953 µM
Serratia marcescens MITC95 [4]: 0.7813 µM
Klebsiella pneumoniae MITC95 [5]: 0.7813 µM
IC50 (VIM-1; VIM-1 IC50, fluorescence assay): 0.104 nM
P. aeruginosa expressing IMP-1, efflux + (MB9798) MITC95 [6]: 0.7813 µM

NS(=O)(=O)c1c(S(=O)(=O)N[C@@H]2CCNC2)ccc(-c2cccn3ccnc23)c1-c1nn[nH]n1 [Example 291, (R)-4-(imidazo[1,2-a]pyridin-8-yl)-N1-(pyrrolidin-3-yl)-3-(2H-tetrazol-5-yl)benzene-1,2-disulfonamide]
Efflux ratio [1]: 1.00
P. aeruginosa expressing IMP-1, efflux − (MB9799) MITC95 [2]: 0.7813 µM
IC50 (NDM-1): 0.0505 nM
IC50 (IMP-1): 0.169 nM
Escherichia coli MITC95 [3]: 0.7813 µM
Serratia marcescens MITC95 [4]: 1.563 µM
Klebsiella pneumoniae MITC95 [5]: 3.125 µM
IC50 (VIM-1; VIM-1 IC50, fluorescence assay): 0.0694 nM
P. aeruginosa expressing IMP-1, efflux + (MB9798) MITC95 [6]: 0.7813 µM

NC(=O)c1nc2c(-c3ccc(S(=O)(=O)N[C@H]4CCNC4)c(S(N)(=O)=O)c3-c3nn[nH]n3)cccc2[nH]1 [Example 292, (S)-4-(4-(N-(pyrrolidin-3-yl)sulfamoyl)-3-sulfamoyl-2-(2H-tetrazol-5-yl)phenyl)-1H-benzo[d]imidazole-2-carboxamide]
Efflux ratio [1]: 0.50
P. aeruginosa expressing IMP-1, efflux − (MB9799) MITC95 [2]: 1.563 µM
IC50 (NDM-1): 0.0453 nM
IC50 (IMP-1): 0.672 nM
Escherichia coli MITC95 [3]: 1.563 µM
Serratia marcescens MITC95 [4]: 3.125 µM
Klebsiella pneumoniae MITC95 [5]: 3.125 µM
IC50 (VIM-1; [7]): 0.146 nM
P. aeruginosa expressing IMP-1, efflux + (MB9798) MITC95 [6]: 0.7813 µM

Nc1nc(-c2cccc(-c3ccc(S(=O)(=O)N[C@H]4CCNC4)c(S(N)(=O)=O)c3-c3nn[nH]n3)c2)c[nH]1 [Example 294, (S)-3′-(2-amino-1H-imidazol-4-yl)-N4-(pyrrolidin-3-yl)-2-(2H-tetrazol-5-yl)-[1,1′-biphenyl]-3,4-disulfonamide]
Efflux ratio [1]: 2.00
P. aeruginosa expressing IMP-1, efflux − (MB9799) MITC95 [2]: 0.7813 µM
IC50 (NDM-1): 0.197 nM
IC50 (IMP-1): 1.72 nM
Escherichia coli MITC95 [3]: 0.3906 µM
Serratia marcescens MITC95 [4]: 0.7813 µM
Klebsiella pneumoniae MITC95 [5]: 1.563 µM
IC50 (VIM-1; VIM-1 IC50, fluorescence assay): 0.742 nM
P. aeruginosa expressing IMP-1, efflux + (MB9798) MITC95 [6]: 1.563 µM

CNc1nc2c(-c3ccc(S(=O)(=O)N[C@H]4CCNC4)c(S(N)(=O)=O)c3-c3nn[nH]n3)cccc2[nH]1 [Example 295, (S)-4-(2-(methylamino)-1H-benzo[d]imidazol-4-yl)-N1-(pyrrolidin-3-yl)-3-(2H-tetrazol-5-yl)benzene-1,2-disulfonamide]
Efflux ratio [1]: 1.00
P. aeruginosa expressing IMP-1, efflux − (MB9799) MITC95 [2]: 0.7813 µM
IC50 (NDM-1): 0.0561 nM
IC50 (IMP-1): 0.775 nM
Escherichia coli MITC95 [3]: 0.7813 µM
Serratia marcescens MITC95 [4]: 0.7813 µM
Klebsiella pneumoniae MITC95 [5]: 1.563 µM
IC50 (VIM-1; [7]): 0.172 nM
P. aeruginosa expressing IMP-1, efflux + (MB9798) MITC95 [6]: 0.7813 µM

N[C@H](CO)CNS(=O)(=O)c1ccc(-c2cccc3[nH]cnc23)c(-c2nn[nH]n2)c1S(N)(=O)=O [Example 296, (S)—N^1-(2-amino-3-hydroxypropyl)-4-(1H-benzo[d]imidazol-4-yl)-3-(2H-tetrazol-5-yl)benzene-1,2-disulfonamide]
Efflux ratio [1]: 1.00
P. aeruginosa expressing IMP-1, efflux − (MB9799) MITC95 [2]: 0.7813 µM
IC50 (NDM-1): 0.0409 nM
IC50 (IMP-1): 0.198 nM
Escherichia coli MITC95 [3]: 1.563 µM
Serratia marcescens MITC95 [4]: 1.563 µM
Klebsiella pneumoniae MITC95 [5]: 3.125 µM
IC50 (VIM-1; [7]): 0.184 nM
P. aeruginosa expressing IMP-1, efflux + (MB9798) MITC95 [6]: 0.7813 µM

Nc1ccc(-c2ccc(S(=O)(=O)NC[C@H](N)CO)c(S(N)(=O)=O)c2-c2nn[nH]n2)cn1 [Example 297, (S)—N^1-(2-amino-3-hydroxypropyl)-4-(6-aminopyridin-3-yl)-3-(2H -tetrazol-5-yl) benzene-1,2-disulfonamide]
Efflux ratio [1]: 1.00
P. aeruginosa expressing IMP-1, efflux − (MB9799) MITC95 [2]: 0.7813 µM
IC50 (NDM-1): 0.331 nM
IC50 (IMP-1): 0.569 nM
Escherichia coli MITC95 [3]: 0.3906 µM
Serratia marcescens MITC95 [4]: 0.7813 µM
Klebsiella pneumoniae MITC95 [5]: 1.563 µM
IC50 (VIM-1; [7]): 0.423 nM
P. aeruginosa expressing IMP-1, efflux + (MB9798) MITC95 [6]: 0.7813 µM

NC[C@@H](O)CNS(=O)(=O)c1ccc(-c2cccc3[nH]c(N)nc23)c(-c2nn[nH]n2)c1S(N)(=O)=O [Example 298, (R)-4-(2-amino-1H-benzo[d]imidazol-4-yl)-N1-(3-amino-2-hydroxypropyl)-3-(2H-tetrazol-5-yl)-benzene-1,2-disulfonamide]
Efflux ratio [1]: 0.69
P. aeruginosa expressing IMP-1, efflux − (MB9799) MITC95 [2]: 0.5156 µM
IC50 (NDM-1): 0.0573 nM
IC50 (IMP-1): 0.671 nM
Escherichia coli MITC95 [3]: 0.2786 µM
Serratia marcescens MITC95 [4]: 0.4531 µM
Klebsiella pneumoniae MITC95 [5]: 1.031 µM
IC50 (VIM-1; [7]): 0.135 nM
P. aeruginosa expressing IMP-1, efflux + (MB9798) MITC95 [6]: 0.3555 µM
